Data reported in ChEMBL document CHEMBL1142783, “Hydrophobicity in the design of P2/P2' tetrahydropyrimidinone HIV protease inhibitors” (Bioorg Med Chem Lett, 2005).

Each molecule was assayed against Human immunodeficiency virus type 1 protease (Human immunodeficiency virus 1) (UniProt Q72874) (assay: Concentration which reduced the concentration of HIV viral RNA by 90% from the level measured in an untreated infected culture).
Assay type: functional

Row | SMILES | Log 1/IC90
1 | O=C1N(c2cccc(O)c2)[C@H](CCc2ccccc2)[C@@H](O)[C@@H](Cc2ccccc2)N1c1cccc(O)c1 | 6.94
2 | N#Cc1cccc(N2C(=O)N(c3cccc(C#N)c3)[C@H](Cc3ccccc3)[C@H](O)[C@H]2CCc2ccccc2)c1 | 5.8
3 | Nc1ccc(N2C(=O)N(c3ccc(N)c(F)c3)[C@H](Cc3ccccc3)[C@H](O)[C@H]2CCc2ccccc2)cc1F | 6.27
4 | NC(=O)c1cccc(N2C(=O)N(c3cccc(C(N)=O)c3)[C@H](Cc3ccccc3)[C@H](O)[C@H]2CCc2ccccc2)c1 | 7.46
5 | O=C1N(c2ccc(CO)cc2)[C@H](CCc2ccccc2)[C@@H](O)[C@@H](Cc2ccccc2)N1c1ccc(CO)cc1 | 5.44
6 | N=C(NO)c1cccc(N2C(=O)N(c3cccc(/C(N)=C\O)c3)[C@H](Cc3ccccc3)[C@H](O)[C@H]2CCc2ccccc2)c1 | 7.31
7 | NC(=O)c1cc(N2C(=O)N(c3ccc(F)c(C(N)=O)c3)[C@H](Cc3ccccc3)[C@H](O)[C@H]2CCc2ccccc2)ccc1F | 6.31
8 | O=C1N(c2cccc(CO)c2)[C@H](CCc2ccccc2)[C@@H](O)[C@@H](Cc2ccccc2)N1c1cccc(CO)c1 | 6.96
9 | O=C1N(c2ccccc2)[C@H](CCc2ccccc2)[C@@H](O)[C@@H](Cc2ccccc2)N1c1ccccc1 | 5.55
10 | CNc1cccc(N2C(=O)N(c3cccc(NC)c3)[C@H](Cc3ccccc3)[C@H](O)[C@H]2CCc2ccccc2)c1 | 6.48
11 | Nc1cc(N2C(=O)N(c3ccc(F)c(N)c3)[C@H](Cc3ccccc3)[C@H](O)[C@H]2CCc2ccccc2)ccc1F | 7.44
12 | Nc1cccc(N2C(=O)N(c3cccc(N)c3)[C@H](Cc3ccccc3)[C@H](O)[C@H]2CCc2ccccc2)c1 | 6.44
